Data as given in the supplement of paper PMC11451515.

Columns and labels:
Details in all cases: 48 h
SEM cells [1] = test: cell viability relative to DMSO control; higher = less cytotoxic
Outline: (§1)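 Library compounds in DMSO were pin-dosed in an 11-point threefold series (47 μM to 0.79 nM) onto leukemia cells in 1536-well plates (5 μl). Plates held 500 cells/well of NOMO1 or SEM or 1000 cells/well of P12-Ichikawa, each adapted for at least four passages in each medium. Luminescence was read with CellTiter-Glo One after 48 h at 37°C. Viability means the per-plate percentage relative to DMSO wells, using cell-free wells as background.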

NOMO1 [2] = test: AUC of viability dose-response curve (% viability x log10 dose units); higher = less sensitive
Outline: (§2)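 Seeding of medium-adapted leukemia cells was at 500 or 1000 cells/well in 1536-well plates, followed by 48 h at 37°C with library compounds in DMSO at 11 threefold doses from 47 μM to 0.79 nM. CellTiter-Glo One luminescence was normalised per plate to DMSO and cell-free wells and fitted as a four-parameter log-logistic function of log10 dose. Area under the curve was integrated by trapezoidal rule, with curves exceeding full viability scaled and curves failing quality control removed.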

SEM cells [3] = test: as above
Outline: as §2

P12-Ichikawa [4] = test: as above
Outline: as §2

P12-Ichikawa [5] = test: cell viability relative to DMSO control; higher = less cytotoxic
Outline: as §1

NOMO1 [6] = test: as above
Outline: as §1

CC(=O)[C@]1(O)Cc2c(O)c3c(c(O)c2[C@@H](O[C@H]2C[C@H](N)[C@H](O)[C@H](C)O2)C1)C(=O)c1ccccc1C3=O
cell viability [%], SEM cells [1]
Details	HPLM + 10% dialyzed FBS	RPMI 5 mM glucose + 10% FBS	RPMI 5 mM glucose + 10% dialyzed FBS
0.000781 µM	118	104	126
0.00234 µM	127	117	110
0.00702 µM	123	113	116
0.0211 µM	124	104	125
0.0632 µM	128	97.8	113
0.19 µM	119	101	97.1
0.569 µM	98.8	80.3	90.3
1.71 µM	34.5	18.9	31.2
5.12 µM	8.24	7.45	6.01
15.4 µM	7.58	6.93	5.83
46.1 µM	6.23	4.81	4.8

AUC of viability dose-response curve
Details	HPLM + 10% dialyzed FBS	RPMI 5 mM glucose + 10% FBS	RPMI 5 mM glucose + 10% dialyzed FBS
NOMO1 [2]	364	367	374
SEM cells [3]	320	313	313

O=C(OCC#CCSc1nnc(-c2cccc3ccccc23)o1)c1cc2ccccc2s1
SEM cells [1], HPLM + 10% dialyzed FBS
Details	cell viability [%]
0.000781 µM	119
0.00234 µM	122
0.00702 µM	121
0.0211 µM	124
0.0632 µM	42.3
0.19 µM	132
0.569 µM	130
1.71 µM	115
5.12 µM	71.7
15.4 µM	128
46.1 µM	113

AUC of viability dose-response curve
Details	HPLM + 10% dialyzed FBS	RPMI 5 mM glucose + 10% FBS	RPMI 5 mM glucose + 10% dialyzed FBS
NOMO1 [2]	431	443	455
P12-Ichikawa [4]	451	444	468

C[C@H]1O[C@H]([C@H](O)[C@@H]1O)N2\C=C(F)/C(=O)NC2=O
AUC of viability dose-response curve
Details	NOMO1 [2]	P12-Ichikawa [4]	SEM cells [3]
HPLM + 10% dialyzed FBS	441	443	460
RPMI 5 mM glucose + 10% FBS	460	440	454
RPMI 5 mM glucose + 10% dialyzed FBS	444	442	436

N#Cc1ccc(C(c2ccc(C#N)cc2)n2cncn2)cc1
SEM cells [1], HPLM + 10% dialyzed FBS
Details	cell viability [%]
0.000781 µM	121
0.00234 µM	118
0.00702 µM	131
0.0211 µM	130
0.0632 µM	40.1
0.19 µM	129
0.569 µM	140
1.71 µM	131
5.12 µM	54.4
15.4 µM	110
46.1 µM	111

AUC of viability dose-response curve
Details	HPLM + 10% dialyzed FBS	RPMI 5 mM glucose + 10% FBS	RPMI 5 mM glucose + 10% dialyzed FBS
NOMO1 [2]	442	450	466
P12-Ichikawa [4]	461	460	451

CCNC(=O)Nc1ccc2ncc(Nc3ccc(C)cc3)nc2n1
cell viability [%], SEM cells [1]
Details	HPLM + 10% dialyzed FBS	RPMI 5 mM glucose + 10% FBS
0.000781 µM	129	119
0.00234 µM	120	139
0.00702 µM	115	117
0.0211 µM	113	119
0.0632 µM	118	124
0.19 µM	109	98.3
0.569 µM	113	124
1.71 µM	108	114
5.12 µM	110	93.3
15.4 µM	68.1	59.3
46.1 µM	34.8	21.2

AUC of viability dose-response curve
Details	NOMO1 [2]	P12-Ichikawa [4]	SEM cells [3]
HPLM + 10% dialyzed FBS	430	459	437
RPMI 5 mM glucose + 10% FBS	453	465	418
RPMI 5 mM glucose + 10% dialyzed FBS	452	464	402

C=CCO/N=C(/C[C@H]1O[C@@H]2O[C@]3(C)CC[C@H]4[C@H](C)CC[C@@H]([C@H]1C)[C@@]24OO3)[C@H]1O[C@@H]2O[C@]3(C)CC[C@H]4[C@H](C)CC[C@@H]([C@H]1C)[C@@]24OO3
AUC of viability dose-response curve
Details	NOMO1 [2]	P12-Ichikawa [4]	SEM cells [3]
HPLM + 10% dialyzed FBS	347	397	350
RPMI 5 mM glucose + 10% FBS	340	357	329
RPMI 5 mM glucose + 10% dialyzed FBS	338	359	328

COC(=O)N1CC2(CC2)C[C@H](C(=O)NO)[C@H]1C(=O)N1CCN(c2ccccc2)CC1
cell viability [%]
Details	P12-Ichikawa [5]	SEM cells [1]
HPLM + 10% dialyzed FBS, 0.000781 µM	122	110
HPLM + 10% dialyzed FBS, 0.00234 µM	133	128
HPLM + 10% dialyzed FBS, 0.00702 µM	119	123
HPLM + 10% dialyzed FBS, 0.0211 µM	125	116
HPLM + 10% dialyzed FBS, 0.0632 µM	117	128
HPLM + 10% dialyzed FBS, 0.19 µM	114	121
HPLM + 10% dialyzed FBS, 0.569 µM	24.5	113
HPLM + 10% dialyzed FBS, 1.71 µM	30.1	40.3
HPLM + 10% dialyzed FBS, 5.12 µM	16.7	19.8
HPLM + 10% dialyzed FBS, 15.4 µM	10.6	16.5
HPLM + 10% dialyzed FBS, 46.1 µM	7.08	6.78
RPMI 5 mM glucose + 10% FBS, 0.000781 µM	121	–
RPMI 5 mM glucose + 10% FBS, 0.00234 µM	132	–
RPMI 5 mM glucose + 10% FBS, 0.00702 µM	119	–
RPMI 5 mM glucose + 10% FBS, 0.0211 µM	129	–
RPMI 5 mM glucose + 10% FBS, 0.0632 µM	136	–
RPMI 5 mM glucose + 10% FBS, 0.19 µM	143	–
RPMI 5 mM glucose + 10% FBS, 0.569 µM	122	–
RPMI 5 mM glucose + 10% FBS, 1.71 µM	99.6	–
RPMI 5 mM glucose + 10% FBS, 5.12 µM	14.2	–
RPMI 5 mM glucose + 10% FBS, 15.4 µM	9.97	–
RPMI 5 mM glucose + 10% FBS, 46.1 µM	7.58	–

AUC of viability dose-response curve
Details	HPLM + 10% dialyzed FBS	RPMI 5 mM glucose + 10% FBS	RPMI 5 mM glucose + 10% dialyzed FBS
NOMO1 [2]	297	310	373
P12-Ichikawa [4]	290	357	324

CC(=O)NCC(=O)N1[C@@H]2CC[C@H]1c1ccc(Nc3ncc(C(F)(F)F)c(NC4CCC4)n3)cc12
AUC of viability dose-response curve
Details	NOMO1 [2]	P12-Ichikawa [4]	SEM cells [3]
HPLM + 10% dialyzed FBS	358	258	247
RPMI 5 mM glucose + 10% FBS	344	268	227
RPMI 5 mM glucose + 10% dialyzed FBS	336	290	227

CO/N=C(/C(=O)N[C@@H]1C(=O)N2C(C(=O)O)=C(CSC(=O)c3ccco3)CS[C@H]12)c1csc(N)n1
cell viability [%]
Details	NOMO1 [6]	P12-Ichikawa [5]	SEM cells [1]
HPLM + 10% dialyzed FBS, 0.000781 µM	81.5	100	62.8
HPLM + 10% dialyzed FBS, 0.00234 µM	106	108	72.5
HPLM + 10% dialyzed FBS, 0.00702 µM	116	112	71.3
HPLM + 10% dialyzed FBS, 0.0211 µM	102	119	68.5
HPLM + 10% dialyzed FBS, 0.0632 µM	113	109	77.7
HPLM + 10% dialyzed FBS, 0.19 µM	103	111	76.5
HPLM + 10% dialyzed FBS, 0.569 µM	109	116	82.3
HPLM + 10% dialyzed FBS, 1.71 µM	85.5	118	77.6
HPLM + 10% dialyzed FBS, 5.12 µM	64.8	113	76.9
HPLM + 10% dialyzed FBS, 15.4 µM	53	109	88.4
HPLM + 10% dialyzed FBS, 46.1 µM	48.8	110	74.8
RPMI 5 mM glucose + 10% FBS, 0.000781 µM	89.4	98.1	77.5
RPMI 5 mM glucose + 10% FBS, 0.00234 µM	104	100	86.9
RPMI 5 mM glucose + 10% FBS, 0.00702 µM	99.4	117	89.6
RPMI 5 mM glucose + 10% FBS, 0.0211 µM	98.6	107	91.3
RPMI 5 mM glucose + 10% FBS, 0.0632 µM	103	105	97.8
RPMI 5 mM glucose + 10% FBS, 0.19 µM	103	106	102
RPMI 5 mM glucose + 10% FBS, 0.569 µM	109	98.6	106
RPMI 5 mM glucose + 10% FBS, 1.71 µM	92.5	104	105
RPMI 5 mM glucose + 10% FBS, 5.12 µM	90.9	98.9	90.6
RPMI 5 mM glucose + 10% FBS, 15.4 µM	73.8	103	108
RPMI 5 mM glucose + 10% FBS, 46.1 µM	77.2	96.2	103
RPMI 5 mM glucose + 10% dialyzed FBS, 0.000781 µM	82.9	95.6	89.1
RPMI 5 mM glucose + 10% dialyzed FBS, 0.00234 µM	97.4	104	93.8
RPMI 5 mM glucose + 10% dialyzed FBS, 0.00702 µM	99.9	112	107
RPMI 5 mM glucose + 10% dialyzed FBS, 0.0211 µM	111	108	117
RPMI 5 mM glucose + 10% dialyzed FBS, 0.0632 µM	104	112	93
RPMI 5 mM glucose + 10% dialyzed FBS, 0.19 µM	101	109	107
RPMI 5 mM glucose + 10% dialyzed FBS, 0.569 µM	111	104	118
RPMI 5 mM glucose + 10% dialyzed FBS, 1.71 µM	103	103	111
RPMI 5 mM glucose + 10% dialyzed FBS, 5.12 µM	82.5	102	120
RPMI 5 mM glucose + 10% dialyzed FBS, 15.4 µM	81.3	107	123
RPMI 5 mM glucose + 10% dialyzed FBS, 46.1 µM	58.5	104	113

AUC of viability dose-response curve
Details	HPLM + 10% dialyzed FBS	RPMI 5 mM glucose + 10% FBS	RPMI 5 mM glucose + 10% dialyzed FBS
NOMO1 [2]	413	453	449
P12-Ichikawa [4]	472	464	476
